Assay results: ChEMBL document CHEMBL1811903, “Protective role of 14-deoxy-11,12-didehydroandrographolide, a noncytotoxic analogue of andrographolide, in allergic airway inflammation” (J Nat Prod, 2011)
The source made the active and inactive calls.

What was measured:
[1] = tested on: Mus musculus; test: Antiinflammatory activity in ovalbumin-sensitized ip dosed BALB/c mouse asthma model assessed as reduction in IL-4 level in bronchoalveolar lavage fluid administered 2 hrs before and 10 hrs after ovalbumin challenge measured after 24 hrs by ELISA; format: functional, organism-based; conditions: Lung
[2] = tested on: Mus musculus; test: Antiinflammatory activity in ovalbumin-sensitized BALB/c mouse asthma model lung assessed as suppression in VCAM-1 mRNA level at 1 mg/kg, ip administered 2 hrs before and 10 hrs after ovalbumin challenge measured after 24 hrs by RT-PCR analysis; format: functional, organism-based; design: dose 1 mg/kg
[3] = tested on: Mus musculus; test: Antiinflammatory activity in ovalbumin-sensitized BALB/c mouse asthma model assessed as reduction in IgG2a level in serum at 0.1 to 1 mg/kg, ip administered 2 hrs before and 10 hrs after ovalbumin challenge measured after 24 hrs by ELISA; format: functional, organism-based
[4] = tested on: A549; test: Cytotoxicity against human A549 cells assessed as reduction in cell viability at 3 to 120 uM after 24 to 48 hrs by MTS assay; format: cell-based; conditions: a549, 120 µM
[5] = tested on: Mus musculus; test: Antiinflammatory activity in ovalbumin-sensitized BALB/c mouse asthma model assessed as reduction in IgG1 level in serum at 0.1 to 1 mg/kg, ip administered 2 hrs before and 10 hrs after ovalbumin challenge measured after 24 hrs by ELISA; format: functional, organism-based
[6] = tested on: Mus musculus; test: Antiinflammatory activity in ovalbumin-sensitized ip dosed BALB/c mouse asthma model assessed as reduction in eotaxin level in bronchoalveolar lavage fluid administered 2 hrs before and 10 hrs after ovalbumin challenge measured after 24 hrs by ELISA; format: functional, organism-based; conditions: Lung
[7] = tested on: Mus musculus; test: Antiinflammatory activity in ovalbumin-sensitized BALB/c mouse asthma model assessed as reduction in methacholine-induced distensibility of the lung at 1 mg/kg, ip administered 2 hrs before and 10 hrs after ovalbumin challenge; format: functional, organism-based; design: dose 1 mg/kg
[8] = tested on: Mus musculus; test: Inhibition of ovalbumin-induced mast cell degranulation in BALB/c mouse asthma model at 1 mg/kg, ip administered 2 hrs before and 10 hrs after ovalbumin challenge measured after 24 hrs using toluidine blue staining by cell counting; format: functional, organism-based; design: dose 1 mg/kg
[9] = tested on: Mus musculus; test: Antiinflammatory activity in ovalbumin-sensitized BALB/c mouse asthma model assessed as reduction in mucus production in lung at 1 mg/kg, ip administered 2 hrs before and 10 hrs after ovalbumin challenge measured after 24 hrs using PAS staining by histologic analysis; format: functional, organism-based; design: dose 1 mg/kg
[10] = tested on: Mus musculus; test: Antiinflammatory activity in ovalbumin-sensitized BALB/c mouse asthma model assessed as reduction in IgE level in serum at 0.1 to 1 mg/kg, ip administered 2 hrs before and 10 hrs after ovalbumin challenge measured after 24 hrs by ELISA; format: functional, organism-based
[11] = Cytotoxicity against human BEAS2B cells assessed as reduction in cell viability at 3 to 120 uM after 24 to 48 hrs by MTS assay; format: cell-based; conditions: beas-2b
[12] = tested on: Mus musculus; test: Antiinflammatory activity in ovalbumin-sensitized BALB/c mouse asthma model lung assessed as suppression in IL-33 mRNA level at 1 mg/kg, ip administered 2 hrs before and 10 hrs after ovalbumin challenge measured after 24 hrs by RT-PCR analysis; format: functional, organism-based; design: dose 1 mg/kg
[13] = tested on: Mus musculus; test: Toxicity in BALB/c mouse assessed as reduction in hematocrit at 1 mg/kg, ip; format: organism-based; design: dose 1 mg/kg, route intraperitoneal; conditions: in vivo
[14] = target: Transcription factor p65 (Homo sapiens) (UniProt Q04206); test: Inhibition of NF-kappaB p65 subunit in TNFalpha-stimulated human A549 cells assessed as reduction in DNA binding activity at 30 uM after 24 hrs by ELISA; format: cell-based
[15] = tested on: Mus musculus; test: Antiinflammatory activity in ovalbumin-sensitized BALB/c mouse asthma model lung assessed as suppression in IL-17 mRNA level at 1 mg/kg, ip administered 2 hrs before and 10 hrs after ovalbumin challenge measured after 24 hrs by RT-PCR analysis; format: functional, organism-based; design: dose 1 mg/kg
[16] = tested on: Mus musculus; test: Antiinflammatory activity in ovalbumin-sensitized BALB/c mouse asthma model lung assessed as suppression in AMCase mRNA level at 1 mg/kg, ip administered 2 hrs before and 10 hrs after ovalbumin challenge measured after 24 hrs by RT-PCR analysis; format: functional, organism-based; design: dose 1 mg/kg
[17] = tested on: Mus musculus; test: Antiinflammatory activity in ovalbumin-sensitized ip dosed BALB/c mouse asthma model assessed as reduction in IL-13 level in bronchoalveolar lavage fluid administered 2 hrs before and 10 hrs after ovalbumin challenge measured after 24 hrs by ELISA; format: functional, organism-based; conditions: Lung
[18] = tested on: Mus musculus; test: Antiinflammatory activity in ovalbumin-sensitized BALB/c mouse asthma model lung assessed as suppression in E-selectin mRNA level at 1 mg/kg, ip administered 2 hrs before and 10 hrs after ovalbumin challenge measured after 24 hrs by RT-PCR analysis; format: functional, organism-based; design: dose 1 mg/kg
[19] = tested on: RBL-2H3; test: Cytotoxicity against rat RBL2H3 cells assessed as reduction in cell viability at 3 to 120 uM after 24 to 48 hrs by MTS assay; format: cell-based; conditions: rbl-2h3, 120 µM
[20] = tested on: Mus musculus; test: Antiinflammatory activity in ovalbumin-sensitized BALB/c mouse asthma model lung assessed as suppression in Muc5ac mRNA level at 1 mg/kg, ip administered 2 hrs before and 10 hrs after ovalbumin challenge measured after 24 hrs by RT-PCR analysis; format: functional, organism-based; design: dose 1 mg/kg
[21] = target: Transcription factor p65 (Homo sapiens) (UniProt Q04206); test: Inhibition of NF-kappaB p65 subunit translocation in TNFalpha-stimulated human A549 cells assessed as reduction in p65 level in nuclear extract at 30 uM after 24 hrs by immunoblotting; format: cell-based
[22] = tested on: Mus musculus; test: Antiinflammatory activity in ovalbumin-sensitized ip dosed BALB/c mouse asthma model assessed as reduction in IL-5 level in bronchoalveolar lavage fluid administered 2 hrs before and 10 hrs after ovalbumin challenge measured after 24 hrs by ELISA; format: functional, organism-based; conditions: Lung
[23] = tested on: Mus musculus; test: Antiinflammatory activity in ip dosed BALB/c mouse asthma model assessed as reduction in ovalbumin-induced eosinophil counts in bronchoalveolar lavage fluid administered 2 hrs before and 10 hrs after ovalbumin challenge measured after 24 hrs by cell counting; format: functional, organism-based; conditions: Lung
[24] = tested on: RBL-2H3; test: Inhibition of IgE-mediated rat RBL2H3 cell degranulation assessed as inhibition of beta-hexosaminidase release; format: functional, cell-based
[25] = tested on: Mus musculus; test: Antiinflammatory activity in ovalbumin-sensitized BALB/c mouse asthma model lung assessed as reduction in NF-kappaB DNA binding activity at 1 mg/kg, ip administered 2 hrs before and 10 hrs after ovalbumin challenge measured after 24 hrs by immunoblotting; format: functional, organism-based; design: dose 1 mg/kg
[26] = tested on: Mus musculus; test: Antiinflammatory activity in ovalbumin-sensitized BALB/c mouse asthma model lung assessed as Inhibition of NF-kappaB p65 subunit nuclear translocation at 1 mg/kg, ip administered 2 hrs before and 10 hrs after ovalbumin challenge measured after 24 hrs by immunoblotting; format: functional, organism-based; design: dose 1 mg/kg
[27] = tested on: Mus musculus; test: Antiinflammatory activity in ovalbumin-sensitized BALB/c mouse asthma model lung assessed as suppression in Ym-2 mRNA level at 1 mg/kg, ip administered 2 hrs before and 10 hrs after ovalbumin challenge measured after 24 hrs by RT-PCR analysis; format: functional, organism-based; design: dose 1 mg/kg
[28] = tested on: Mus musculus; test: Antiinflammatory activity in ip dosed BALB/c mouse asthma model assessed as reduction in ovalbumin-induced total cell counts in bronchoalveolar lavage fluid administered 2 hrs before and 10 hrs after ovalbumin challenge measured after 24 hrs by cell counting; format: functional, organism-based; conditions: Lung
[29] = tested on: Mus musculus; test: Antiinflammatory activity in BALB/c mouse asthma model assessed as reduction in ovalbumin-induced macrophage counts in bronchoalveolar lavage fluid at 1 mg/kg, ip administered 2 hrs before and 10 hrs after ovalbumin challenge measured after 24 hrs by cell counting; format: functional, organism-based; design: dose 1 mg/kg; conditions: Lung
[30] = tested on: Mus musculus; test: Antiinflammatory activity in BALB/c mouse asthma model assessed as reduction in ovalbumin-induced lymphocyte counts in bronchoalveolar lavage fluid at 1 mg/kg, ip administered 2 hrs before and 10 hrs after ovalbumin challenge measured after 24 hrs by cell counting; format: functional, organism-based; design: dose 1 mg/kg; conditions: Lung
[31] = tested on: Mus musculus; test: Toxicity in BALB/c mouse assessed as reduction in red blood cell count at 1 mg/kg, ip; format: organism-based; design: dose 1 mg/kg, route intraperitoneal; conditions: in vivo
[32] = tested on: Mus musculus; test: Antiinflammatory activity in ovalbumin-sensitized BALB/c mouse asthma model lung assessed as suppression in MCP-1 mRNA level at 1 mg/kg, ip administered 2 hrs before and 10 hrs after ovalbumin challenge measured after 24 hrs by RT-PCR analysis; format: functional, organism-based; design: dose 1 mg/kg
[33] = tested on: Mus musculus; test: Toxicity in BALB/c mouse assessed as reduction in hemoglobin concentration at 1 mg/kg, ip; format: organism-based; design: dose 1 mg/kg, route intraperitoneal; conditions: in vivo
[34] = tested on: Mus musculus; test: Antiinflammatory activity in ovalbumin-sensitized BALB/c mouse asthma model assessed as reduction in goblet cell hyperplasia at 1 mg/kg, ip administered 2 hrs before and 10 hrs after ovalbumin challenge measured after 24 hrs using hematoxylin and eosin staining by histologic analysis; format: functional, organism-based; design: dose 1 mg/kg
[35] = tested on: Mus musculus; test: Antiinflammatory activity in ovalbumin-sensitized BALB/c mouse asthma model assessed as reduction in methacholine-induced maximum total lung resistance at 1 mg/kg, ip administered 2 hrs before and 10 hrs after ovalbumin challenge; format: functional, organism-based; design: dose 1 mg/kg
[36] = tested on: Mus musculus; test: Antiinflammatory activity in ovalbumin-sensitized BALB/c mouse asthma model lung assessed as suppression in Ym-1 mRNA level at 1 mg/kg, ip administered 2 hrs before and 10 hrs after ovalbumin challenge measured after 24 hrs by RT-PCR analysis; format: functional, organism-based; design: dose 1 mg/kg
[37] = tested on: Mus musculus; test: Antiinflammatory activity in ovalbumin-sensitized BALB/c mouse asthma model assessed as reduction in total IgE level in serum at 0.1 to 1 mg/kg, ip administered 2 hrs before and 10 hrs after ovalbumin challenge measured after 24 hrs by ELISA; format: functional, organism-based
[38] = tested on: Mus musculus; test: Antiinflammatory activity in ovalbumin-sensitized BALB/c mouse asthma model lung assessed as suppression in COX-2 mRNA level at 1 mg/kg, ip administered 2 hrs before and 10 hrs after ovalbumin challenge measured after 24 hrs by RT-PCR analysis; format: functional, organism-based; design: dose 1 mg/kg
[39] = tested on: Mus musculus; test: Antiinflammatory activity in ovalbumin-sensitized BALB/c mouse asthma model lung assessed as suppression in […] mRNA level at 1 mg/kg, ip administered 2 hrs before and 10 hrs after ovalbumin challenge measured after 24 hrs by RT-PCR analysis; format: functional, organism-based; design: dose 1 mg/kg
[40] = tested on: Mus musculus; test: Toxicity in BALB/c mouse assessed as reduction in white blood cell count at 1 mg/kg, ip; format: organism-based; design: dose 1 mg/kg, route intraperitoneal; conditions: in vivo
[41] = tested on: RBL-2H3; test: Cytotoxicity against rat RBL2H3 cells assessed as reduction in cell viability after 24 hrs by MTS assay; format: cell-based; conditions: rbl-2h3, 24 h
[42] = Cytotoxicity against human BEAS2B cells assessed as reduction in cell viability after 24 hrs by MTS assay; format: cell-based; conditions: beas-2b
[43] = tested on: A549; test: Cytotoxicity against human A549 cells assessed as reduction in cell viability after 48 hrs by MTS assay; format: cell-based; conditions: a549, 48 h
[44] = tested on: RBL-2H3; test: Cytotoxicity against rat RBL2H3 cells assessed as reduction in cell viability at 3 to 120 uM by MTS assay; format: cell-based; conditions: rbl-2h3, 120 µM, TDE = time-dependent effect
[45] = Cytotoxicity against human BEAS2B cells assessed as reduction in cell viability at 3 to 120 uM by MTS assay; format: cell-based; conditions: beas-2b, TDE = time-dependent effect
[46] = tested on: A549; test: Cytotoxicity against human A549 cells assessed as reduction in cell viability after 24 hrs by MTS assay; format: cell-based; conditions: a549, 24 h
[47] = Cytotoxicity against human BEAS2B cells assessed as reduction in cell viability after 48 hrs by MTS assay; format: cell-based; conditions: beas-2b
[48] = tested on: RBL-2H3; test: Cytotoxicity against rat RBL2H3 cells assessed as reduction in cell viability after 48 hrs by MTS assay; format: cell-based; conditions: rbl-2h3, 48 h
[49] = tested on: A549; test: Cytotoxicity against human A549 cells assessed as reduction in cell viability at 3 to 120 uM by MTS assay; format: cell-based; conditions: a549, 120 µM, TDE = time-dependent effect

Chain of Transcription factor p65 (Homo sapiens) (Q04206 whole entry): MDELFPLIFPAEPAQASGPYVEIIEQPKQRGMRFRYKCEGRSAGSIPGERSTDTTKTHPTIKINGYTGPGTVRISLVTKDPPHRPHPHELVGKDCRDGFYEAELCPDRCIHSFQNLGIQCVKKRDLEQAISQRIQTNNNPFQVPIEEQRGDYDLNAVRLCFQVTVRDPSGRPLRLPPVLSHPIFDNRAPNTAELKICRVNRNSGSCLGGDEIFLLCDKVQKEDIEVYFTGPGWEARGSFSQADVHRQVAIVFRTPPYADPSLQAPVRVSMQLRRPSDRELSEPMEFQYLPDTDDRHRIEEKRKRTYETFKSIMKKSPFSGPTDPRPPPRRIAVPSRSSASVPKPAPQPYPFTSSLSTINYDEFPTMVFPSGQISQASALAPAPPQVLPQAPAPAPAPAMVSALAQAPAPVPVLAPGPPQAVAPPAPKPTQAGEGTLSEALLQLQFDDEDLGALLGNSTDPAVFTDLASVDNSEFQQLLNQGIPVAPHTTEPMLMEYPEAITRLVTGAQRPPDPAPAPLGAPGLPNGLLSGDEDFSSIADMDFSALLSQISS

C=C1CC[C@@H]2[C@](C)(CO)[C@H](O)CC[C@@]2(C)[C@@H]1/C=C/C1=CCOC1=O
inactive: Activity [3] | inhibition [8] | inhibition [24]
Non-toxic: Activity [4] | Activity [11] | Activity [13] | Activity [19] | Activity [31] | Activity [33] | Activity [40]
active: Activity [1] Dose-dependent effect | Activity [2] | Activity [5] | Activity [6] Dose-dependent effect | Activity [7] | Activity [9] | Activity [10] | Activity [12] | inhibition [14] | Activity [15] | Activity [16] | Activity [17] Dose-dependent effect | Activity [18] | Activity [20] | inhibition [21] | Activity [22] Dose-dependent effect | Activity [23] Dose-dependent effect | Activity [25] | inhibition [26] | Activity [27] | Activity [28] Dose-dependent effect | Activity [29] | Activity [30] | Activity [32] | Activity [34] | Activity [35] | Activity [36] | Activity [37] | Activity [38] | Activity [39]

C=C1CC[C@@H]2[C@](C)(CO)[C@H](O)CC[C@@]2(C)[C@@H]1C/C=C1/C(=O)OC[C@H]1O [ANDROGRAPHOLIDE]
Dose-dependent effect: Activity [41] | Activity [42] | Activity [43] | Activity [46] | Activity [47] | Activity [48]
tde: Activity [44] | Activity [45] | Activity [49]
